Structures can show the parent of a compound that is named as a salt.
Target: "atypical" β-adrenoceptors (Cavia porcellus, UniProt Q3HNP5)
Assay: Relaxation of histamine-contracted guinea-pig ileum
Conditions: histamine 0.5 μM contraction, propranolol 5 μM, atropine 1 μM, phentolamine 3 μM present, read-out: EC30 (concentration of agonist producing a relaxation equivalent to 30% histamine inhibition)

Chain of "atypical" β-adrenoceptors (Q3HNP5 1-379): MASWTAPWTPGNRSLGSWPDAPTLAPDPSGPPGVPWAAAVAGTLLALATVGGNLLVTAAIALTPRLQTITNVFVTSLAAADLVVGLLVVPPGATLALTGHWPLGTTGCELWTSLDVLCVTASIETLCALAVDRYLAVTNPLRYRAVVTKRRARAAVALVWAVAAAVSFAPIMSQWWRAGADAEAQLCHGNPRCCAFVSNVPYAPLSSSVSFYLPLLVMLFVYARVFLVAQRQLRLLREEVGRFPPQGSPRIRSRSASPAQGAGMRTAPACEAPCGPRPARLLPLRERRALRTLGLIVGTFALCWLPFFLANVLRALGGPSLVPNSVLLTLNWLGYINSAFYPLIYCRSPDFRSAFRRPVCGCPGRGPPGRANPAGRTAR

`COCCNC(=O)COc1ccc(OCCNC[C@H](O)COc2ccccc2)cc1` [(S)-4-[2-(2-hydroxy-3-phenoxypropylamino)ethoxy]-N-(2-methoxyethyl)phenoxyacetamide hydrochloride] was tested, and the EC30 was 940 ± 260 nM.
